ChEMBL document CHEMBL3885881, “DrugMatrix”

Organism: Rattus norvegicus
Assay: DrugMatrix - Regimen: Daily Repeat
Assay type: toxicity, organism-based, Sprague-Dawley
Parameters: regimen Daily Repeat, gender Male, age 6-8 weeks
Details: in vivo, po, 41 mg/kg, route oral GAVAGE, dose level Low, vehicle 100 % WATER; for ABSOLUTE BASOPHIL / ABSOLUTE EOSINOPHIL / ABSOLUTE LYMPHOCYTE / ABSOLUTE MONOCYTE / ABSOLUTE SEGMENTED NEUTROPHIL / BASOPHIL / EOSINOPHIL / ERYTHROCYTE COUNT / HEMATOCRIT / HEMOGLOBIN / LEUKOCYTE COUNT / LYMPHOCYTE / MEAN CORPUSCULAR HEMOGLOBIN / MEAN CORPUSCULAR HEMOGLOBIN CONCENTRATION / MEAN CORPUSCULAR VOLUME / MONOCYTE / NEUTROPHIL / NUCLEATED RED BLOOD CELLS / PLATELET COUNT: tissue Blood; for ALANINE AMINOTRANSFERASE / ALBUMIN / ALKALINE PHOSPHATASE / ASPARTATE AMINOTRANSFERASE / BLOOD UREA NITROGEN / CARBON DIOXIDE / CHLORIDE / CHOLESTEROL / CREATINE PHOSPHOKINASE / CREATININE / GLUCOSE / LACTATE DEHYDROGENASE / LIPASE / PHOSPHORUS / POTASSIUM / SODIUM / TOTAL BILIRUBIN / TOTAL PROTEIN / URIC ACID: tissue Plasma

SMILES: CC(O)(P(=O)(O)O)P(=O)(O)O [ETIDRONIC ACID]
- ABSOLUTE BASOPHIL (72 h, time 3 day): 0 CELLS/uL
- ABSOLUTE EOSINOPHIL (72 h, time 3 day): 0 CELLS/uL
- ABSOLUTE LYMPHOCYTE (72 h, time 3 day): 15847 CELLS/uL
- ABSOLUTE MONOCYTE (72 h, time 3 day): 485 CELLS/uL
- ABSOLUTE SEGMENTED NEUTROPHIL (72 h, time 3 day): 1868 CELLS/uL
- BASOPHIL (72 h, time 3 day): 0%
- EOSINOPHIL (72 h, time 3 day): 0%
- ERYTHROCYTE COUNT (72 h, time 3 day): 5.74 x10E6/uL
- HEMATOCRIT (72 h, time 3 day): 35.63%
- HEMOGLOBIN (72 h, time 3 day): 13.33 G/DL
- LEUKOCYTE COUNT (72 h, time 3 day): 18.2 x10E3/uL
- LYMPHOCYTE (72 h, time 3 day): 86.67%
- MEAN CORPUSCULAR HEMOGLOBIN (72 h, time 3 day): 23.27 pg
- MEAN CORPUSCULAR HEMOGLOBIN CONCENTRATION (72 h, time 3 day): 37.43 G/DL
- MEAN CORPUSCULAR VOLUME (72 h, time 3 day): 62.13 fL
- MONOCYTE (72 h, time 3 day): 2.67%
- NEUTROPHIL (72 h, time 3 day): 10.67%
- NUCLEATED RED BLOOD CELLS (72 h, time 3 day): 0 /100WBC
- PLATELET COUNT (72 h, time 3 day): 1274.67 x10E3/uL
- ALANINE AMINOTRANSFERASE (72 h, time 3 day): 42.33 u/L
- ALBUMIN (72 h, time 3 day): 4.67 G/DL
- ALKALINE PHOSPHATASE (72 h, time 3 day): 379 u/L
- ASPARTATE AMINOTRANSFERASE (72 h, time 3 day): 79 u/L
- BLOOD UREA NITROGEN (72 h, time 3 day): 20.67 mg/dL
- CARBON DIOXIDE (72 h, time 3 day): 24 mmol/L
- CHLORIDE (72 h, time 3 day): 100 MEQ/L
- CHOLESTEROL (72 h, time 3 day): 62.33 mg/dL
- CREATINE PHOSPHOKINASE (72 h, time 3 day): 167.33 u/L
- CREATININE (72 h, time 3 day): 0.19 mg/dL
- GLUCOSE (72 h, time 3 day): 153 mg/dL
- LACTATE DEHYDROGENASE (72 h, time 3 day): 126 u/L
- LIPASE (72 h, time 3 day): 9.33 u/L
- PHOSPHORUS (72 h, time 3 day): 12.13 mg/dL
- POTASSIUM (72 h, time 3 day): 7.21 MEQ/L
- SODIUM (72 h, time 3 day): 143.1 MEQ/L
- TOTAL BILIRUBIN (72 h, time 3 day): 0.2 mg/dL
- TOTAL PROTEIN (72 h, time 3 day): 5.6 G/DL
- URIC ACID (72 h, time 3 day): 1.7 mg/dL
- ABSOLUTE BASOPHIL (120 h, time 5 day): 0 CELLS/uL
- ABSOLUTE EOSINOPHIL (120 h, time 5 day): 0 CELLS/uL
- ABSOLUTE LYMPHOCYTE (120 h, time 5 day): 11460.33 CELLS/uL
- ABSOLUTE MONOCYTE (120 h, time 5 day): 399 CELLS/uL
- ABSOLUTE SEGMENTED NEUTROPHIL (120 h, time 5 day): 1374 CELLS/uL
- BASOPHIL (120 h, time 5 day): 0%
- EOSINOPHIL (120 h, time 5 day): 0%
- ERYTHROCYTE COUNT (120 h, time 5 day): 5.69 x10E6/uL
- HEMATOCRIT (120 h, time 5 day): 35%
- HEMOGLOBIN (120 h, time 5 day): 13.13 G/DL
- LEUKOCYTE COUNT (120 h, time 5 day): 13.23 x10E3/uL
- LYMPHOCYTE (120 h, time 5 day): 86.67%
- MEAN CORPUSCULAR HEMOGLOBIN (120 h, time 5 day): 23.1 pg
- MEAN CORPUSCULAR HEMOGLOBIN CONCENTRATION (120 h, time 5 day): 37.57 G/DL
- MEAN CORPUSCULAR VOLUME (120 h, time 5 day): 61.53 fL
- MONOCYTE (120 h, time 5 day): 3%
- NEUTROPHIL (120 h, time 5 day): 10.33%
- NUCLEATED RED BLOOD CELLS (120 h, time 5 day): 0 /100WBC
- PLATELET COUNT (120 h, time 5 day): 1338.67 x10E3/uL
- ALANINE AMINOTRANSFERASE (120 h, time 5 day): 43 u/L
- ALBUMIN (120 h, time 5 day): 4.23 G/DL
- ALKALINE PHOSPHATASE (120 h, time 5 day): 323.33 u/L
- ASPARTATE AMINOTRANSFERASE (120 h, time 5 day): 88.33 u/L
- BLOOD UREA NITROGEN (120 h, time 5 day): 18.67 mg/dL
- CARBON DIOXIDE (120 h, time 5 day): 23 mmol/L
- CHLORIDE (120 h, time 5 day): 108.5 MEQ/L
- CHOLESTEROL (120 h, time 5 day): 50 mg/dL
- CREATINE PHOSPHOKINASE (120 h, time 5 day): 367.67 u/L
- CREATININE (120 h, time 5 day): 0.18 mg/dL
- GLUCOSE (120 h, time 5 day): 149.33 mg/dL
- LACTATE DEHYDROGENASE (120 h, time 5 day): 265.67 u/L
- LIPASE (120 h, time 5 day): 8.5 u/L
- PHOSPHORUS (120 h, time 5 day): 10.7 mg/dL
- POTASSIUM (120 h, time 5 day): 5.74 MEQ/L
- SODIUM (120 h, time 5 day): 146.55 MEQ/L
- TOTAL BILIRUBIN (120 h, time 5 day): 0.2 mg/dL
- TOTAL PROTEIN (120 h, time 5 day): 5.8 G/DL
- URIC ACID (120 h, time 5 day): 1.53 mg/dL
